Results published in patent publication US20250188088A1, “COMPOUND AND USE THEREOF” (ONQUALITY PHARMACEUTICALS CHINA LTD., priority 2022, published 2025).

Assays:
[1] = test system: rash caused by small molecule EGFR inhibitors; assay: Treatment of rash caused by small molecule EGFR inhibitors, topical ointment, rat model; assay type: in vivo, SD rats
Experimental: An Experiment to Verify the Treatment of Rash Caused by Small Molecule EGFR Inhibitors with Topical Administration of Compounds of the Present Application on a Rat Animal Model After the SD rats were fed and adapted for one week (about 200 g), the rats were divided into 10 rats per group. The hair on the back of rats was gently removed with an electric razor one day before the experiment, and then an intragastric administration test was carried out. EGFR inhibitors were dissolved in a sterile aqueous solution, and diluted with PBS buffer; the amount of each gavage was not more than 2 mL, and the dosage was shown in Table 3. […] The experiments were divided into the administration group with the compound of the present application and the control group. During the treatment experiment, EGFR inhibitors were intragastrically administered continuously every day. After the gavage, the administration group applied the compound ointment of the present application on the back (about 3 cm*3 cm) of rats, and the control group applied blank matrix ointment on the back (about 3 cm*3 cm); after application, the rats were fixed with a fixed cyclinder for about 4 hours, and then the rats were released, with the residual drug at the application site wiped off with clean water, and put back into the cage. The frequency of intragastric administration of EGFR inhibitors is shown in Table 3, but the compounds of the present application and blank ointment are applied only once a day. […] Table 3 lists the animal experiment combinations of various small molecule EGFR inhibitors and the compound ointment of the present application, as well as the corresponding experiment results (wherein, the value in the control rate column=the number of rats whose rash is milder in the administration group than that in the control group/the total number of rats in the administration group×100%).

[2] = test system: rash caused by monoclonal EGFR inhibitors; assay: Treatment of rash caused by monoclonal EGFR inhibitors, topical ointment, rat model; assay type: in vivo; conditions: SD rats
Experimental: An Experiment to Verify the Treatment of Rash Caused by Monoclonal EGFR Inhibitors with Topical Administration of Compounds of the Present Application on a Rat Animal Model After the SD rats were fed and adapted for one week (about 200 g), the rats were divided into 10 rats per group. The hair on the back of rats was gently removed with an electric razor one day before the experiment, and then an administration test was carried out. The EGFR monoclonal antibody solution diluted with normal saline was injected via tail vein twice a week, and the injection rate and time were shown in Table 4; the treatment experiment was started at the time point when rats developed a rash after continuous administration for 1-2 weeks. The experiments were divided into the administration group with the compound of the present application and the control group. During the treatment experiment, monoclonal antibody EGFR inhibitors were injected twice a week. the administration group applied the compound ointment of the present application on the back (about 3 cm*3 cm) of rats every day, and the control group applied blank matrix ointment on the back (about 3 cm*3 cm); after application, the rats were fixed with a fixed cyclinder for about 4 hours, and then the rats were released, with the residual drug at the application site wiped off with clean water, and put back into the cage. […] Table 4 lists the animal experiment combinations of monoclonal antibody EGFR inhibitors and the compound ointment of the present application, as well as the corresponding experiment results (wherein, the value in the control rate column=the number of rats whose rash is milder in the administration group than that in the control group/the total number of rats in the administration group×100%).

[3] = test system: skin contact delayed-type hypersensitivity; assay: Skin contact delayed-type hypersensitivity (DNFB) response test, ear swelling, topical ointment; assay type: in vivo; conditions: topical to ears, DNFB DTH, Balb/c mice, compared to blank ointment
Excerpt: Therapeutic Effect of Topical Administration of Compounds of the Present Application in Skin Contact Delayed-Type Hypersensitivity Response Test in Mice Delayed-type hypersensitivity (DTH) response in mouse skin is considered to be an effective model for clinical contact dermatitis and other T cell-mediated cutaneous immune diseases, such as atopic dermatitis and psoriasis. The DTH in mice shares the common features with these cutaneous immune diseases, including immunoinfiltration with an increase of inflammatory cytokines and hyperproliferation of keratinocytes. Balb/c mice were sensitized by topical administration of the antigen 2,4-dinitrofluorobenzene (DNFB) to the shaved back of mice on Days 0 and 1. On Day 5, the thickness of the ears was measured using an engineering micrometer. The measurement result was recorded and used as a baseline. The animals were then challenged with a total of 20 μL of DNFB (10 μL for the internal pinna and 10 μL for the external pinna) topically dosed to both ears at a concentration of 0.2%. The ears were measured again 24-72 hours after challenge. The compound ointment of the present application was applied topically to the ears of the animals throughout the allergic and challenge periods (Days −1˜7) or before or throughout the challenge period (generally Days 4˜7). The therapeutic effect was expressed by a reduction in ear swelling compared to that of the blank ointment. The compound causing a reduction of 20% or more was considered effective. Table 5 lists the skin contact delayed-type hypersensitivity experiment results in mice treated with the compound of the present application.

Question: Which results are given for `C=CC(=O)N1C[C@@H](Nc2ncnc3c2ccn3C(=O)N(C)CCOC(=O)C2CC2)CC[C@H]1C` [Compound A33]?
Answer: Control Rate ([1]; EAI045 80 mg/kg once a day, 8 dosing modelling days, ointment 1.0 wt% once a day): 30%; Control Rate ([1]; EAI045 80 mg/kg once a day, 8 dosing modelling days, ointment 5.0 wt% once a day): 60%; Control Rate ([1]; Osimertinib 60 mg/kg twice a day, 7 dosing modelling days, ointment 3.0 wt% once a day): 30%; Control Rate ([1]; Osimertinib 60 mg/kg twice a day, 7 dosing modelling days, ointment 10.0 wt% once a day): 70%; Control Rate ([2]; Cetuximab 100 mg/kg twice a week via tail vein, ointment 0.1 wt%, 10 days of drug application): 20%; Control Rate ([2]; Cetuximab 100 mg/kg twice a week via tail vein, ointment 1.0 wt%, 10 days of drug application): 50%; Control Rate ([2]; Cetuximab 100 mg/kg twice a week via tail vein, ointment 5.0 wt%, 10 days of drug application): 80%; Control Rate ([2]; Cetuximab 100 mg/kg twice a week via tail vein, ointment 10.0 wt%, 10 days of drug application): 100%; Control Rate ([2]; Panitumumab 6 mg/kg twice a week via tail vein, ointment 0.1 wt%, 8 days of drug application): 30%; Control Rate ([2]; Panitumumab 6 mg/kg twice a week via tail vein, ointment 1.0 wt%, 8 days of drug application): 70%; Control Rate ([2]; Panitumumab 6 mg/kg twice a week via tail vein, ointment 5.0 wt%, 8 days of drug application): 70%; Control Rate ([2]; Panitumumab 6 mg/kg twice a week via tail vein, ointment 10.0 wt%, 8 days of drug application): 100%; Reduction Rate of Ear Swelling ([3]; ointment 1.0 wt%): 22%; Reduction Rate of Ear Swelling ([3]; ointment 5.0 wt%): 32%
